How the values were obtained:
[1] = Inhibition of F-actin activated rabbit full length myosin 2 ATPase activity after 1 hr by CytoPhos reagent based assay; parameters: species or system Oryctolagus cuniculus
[2] = Solubility of the compound in Tris-HCl at pH 7.5; format: physicochemical; settings: Tris-HCl buffer

Row | Structure (SMILES) | IC50 [1] [µM] | solubility [2] [µM]
1 | Cc1ccc2c(c1)C(=O)[C@]1(O)CCN(c3ccccc3)C1=N2 | 1.02 | < 100
2 | C=CCN1CCc2cc3c(cc21)N=C1N(c2ccccc2)CC[C@@]1(O)C3=O | 8.46 | < 40

The next lines start with the values.

Row | IC50 [1] [µM] | solubility [2] [µM] | Structure (SMILES)
3 | 14.5 | < 50 | O=C1c2cc3c(cc2N=C2N(c4ccccc4)CC[C@@]12O)NCC3
4 | 7.97 | < 15 | O=C1c2cc3ccccc3cc2N=C2N(c3ccccc3)CC[C@@]12O
5 | > 20 | < 40 | O=C1c2cc3cc[nH]c3cc2N=C2N(c3ccccc3)CC[C@@]12O

From ChEMBL document CHEMBL4033699, “Insights into the myosin II inhibitory potency of A-ring-modified (S)-blebbistatin analogs” (Bioorg Med Chem Lett, 2017)
